Source: ChEMBL document CHEMBL1128817, “Synthesis of bisindolylmaleimide macrocycles” (Bioorg Med Chem Lett, 1995)

Experiments:
[1] = molecular target: Protein kinase C beta type (Homo sapiens, UniProt P05771); test: Inhibition of Protein kinase C beta 2
[2] = Selectivity ratio of IC50 of PKA to PKC
Protein kinase C (PKC) = test: Inhibition of rat brain PKC
[3] = Selectivity ratio of IC50 of PKCalpha to PKCbeta II

Chain of Protein kinase C beta type (P05771 whole entry): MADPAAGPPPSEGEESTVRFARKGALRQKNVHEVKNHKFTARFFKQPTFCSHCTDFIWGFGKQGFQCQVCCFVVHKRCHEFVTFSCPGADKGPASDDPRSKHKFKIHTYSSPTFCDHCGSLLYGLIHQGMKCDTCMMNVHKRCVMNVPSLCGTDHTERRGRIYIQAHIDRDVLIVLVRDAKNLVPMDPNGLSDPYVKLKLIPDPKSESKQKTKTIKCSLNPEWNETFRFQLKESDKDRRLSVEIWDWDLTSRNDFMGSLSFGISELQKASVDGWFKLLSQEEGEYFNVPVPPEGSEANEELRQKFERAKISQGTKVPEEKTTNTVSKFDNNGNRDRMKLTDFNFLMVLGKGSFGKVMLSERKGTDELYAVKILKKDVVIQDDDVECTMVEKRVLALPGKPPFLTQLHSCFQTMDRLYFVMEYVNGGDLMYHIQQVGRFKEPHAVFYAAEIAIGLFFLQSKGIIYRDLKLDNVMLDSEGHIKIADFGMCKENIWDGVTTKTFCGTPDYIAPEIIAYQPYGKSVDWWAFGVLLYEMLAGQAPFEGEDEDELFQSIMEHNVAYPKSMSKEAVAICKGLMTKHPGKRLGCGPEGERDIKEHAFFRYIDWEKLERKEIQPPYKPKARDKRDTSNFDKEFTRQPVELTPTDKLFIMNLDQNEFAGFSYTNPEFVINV

Q: With O=C1NC(=O)C2=C1c1cn(c3ccccc13)CCCOC(CO)CCn1cc2c2ccccc21 (centres undefined) as the compound, how does the IC50 [1] read?
A: 270 nM

Q: What about the Ratio [2] of the same compound?
A: > 10000

Q: What about the IC50 (Protein kinase C (PKC)) of the same compound?
A: 6400 nM

Q: And the Ratio [3]?
A: 25
